# Literature values in publication PMC3215888 (Cancer Chemotherapy and Pharmacology, 2011).
# Test system: Aurora kinase A mutation (T217D)
# Details: cited from earlier work
smiles,measurement,value
"O=C(O)c1ccc(Nc2ncc3c(n2)-c2ccc(Cl)cc2C(c2c(F)cccc2F)=NC3)cc1 [MLN8054, reference compound]",inhibition of Aurora kinase A T217D mutant,impervious
